Test results published in patent US20250369954A1, “PLATFORM AND METHOD TO CO[…] FUN[…] CARD[…] OTHER CELLS ON BOTH SIDES OF A POROUS MEMBRANE” (Government of the United States of America, as represented …, priority 2024, published 2025).

Tested on: hiPSC-CM cells
Assay: Impedance measurement of cardiomyocyte beating on the microfluidic device
Format: cell-based, human
Conditions: 1 μM verapamil, after 10 minutes of treatment, hiPSC-CM on porous membrane
Experimental: In one embodiment, human induced pluripotent stem cell-derived cardiomyocytes (hiPSC-CM) were cultured directly on the PET membrane of the microfluidic device.
Cells in this example were trapped in the region of interest within the device using dielectrophoretic cell capture, directing cells from the microfluidic channel to the electrode. In this example, the entire electrode was covered with cells in increasing density from around 1 to 3 minutes. The following parameters for dielectrophoresis were used in this example: 4-6 Vpp, 12 MHz, […] μl min-1.
In one embodiment, hiPSC-CM cells are captured on one side of the porous membrane as in Example 1. The cardiomyocytes are treated with 1 μM verapamil, a Ca^2+ channel blocker used for treating arrhythmia.

SMILES: COc1ccc(CCN(C)CCCC(C#N)(c2ccc(OC)c(OC)c2)C(C)C)cc1OC (stereo not shown) [verapamil]
- effect on cardiomyocyte beating (change in impedance): cessation of cardiomyocyte beating
